ChEMBL document CHEMBL1201862, “PubChem BioAssay data set” (2004)
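1) Cells in 96-well plates. 2) Compound, 48 h, 5 concentrations. 3) Linear interpolation between surrounding doses. 4) Unreached endpoint = highest concentration. GI50: concentration for 50% inhibition of growth.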 Calls of active or inactive are those of the source. Cut-off read from the data, not from the text of the source: active = GI50 up to about 1.1 µM and inactive = higher.

Key:
Assay in all cases: DTP human tumour cell line panel, 48 h
SF-539 = tested on: SF-539
A549 = tested on: A549
SF-295 = tested on: SF-295
NCI-H522 = tested on: NCI-H522
SK-MEL-5 = tested on: SK-MEL-5
SN12C = tested on: SN12C
BT-549 = tested on: BT-549
786-0 = tested on: 786-0
SNB-19 = tested on: SNB-19
OVCAR-8 = tested on: OVCAR-8
HL-60 = tested on: HL-60
IGROV-1 = tested on: IGROV-1
U-251 = tested on: U-251
ACHN = tested on: ACHN
HCC 2998 = tested on: HCC 2998
HCT-15 = tested on: HCT-15
SNB-75 = tested on: SNB-75
HOP-92 = tested on: HOP-92
A498 = tested on: A498

SMILES | GI50 (SF-539) | GI50 (A549) | GI50 (SF-295) | GI50 (NCI-H522) | GI50 (SK-MEL-5) | GI50 (SN12C) | GI50 (BT-549) | GI50 (786-0) | GI50 (SNB-19) | GI50 (OVCAR-8) | GI50 (HL-60) | GI50 (IGROV-1) | GI50 (U-251) | GI50 (ACHN) | GI50 (HCC 2998) | GI50 (HCT-15) | GI50 (SNB-75) | GI50 (HOP-92) | GI50 (A498)
NC(Cc1ccccc1)C(=O)OCN1C(=O)C2C3C=CC(C2C1=O)C1C(=O)N(COC(=O)C(N)Cc2ccccc2)C(=O)C31 (stereo unspecified) | > 100 µM (inactive) | > 100 µM (inactive) | > 100 µM (inactive) | > 100 µM (inactive) | 49.8 µM (inactive) | > 100 µM (inactive) | > 100 µM (inactive) | 35.7 µM (inactive) | > 100 µM (inactive) | > 100 µM (inactive) | 17.4 µM (inactive) | > 100 µM (inactive) | > 100 µM (inactive) | > 100 µM (inactive) | > 100 µM (inactive) | 27.4 µM | – | – | –
COc1c(O)c(OC)c(C(=O)/C=C/c2ccccc2)c(O)c1OC [PEDICIN] | 30.5 µM (inactive) | – | 35.6 µM (inactive) | 16 µM (inactive) | 20.4 µM (inactive) | 18.3 µM (inactive) | – | 32.4 µM (inactive) | 92 µM (inactive) | 17.9 µM (inactive) | 58.2 µM (inactive) | 21.3 µM (inactive) | 31.9 µM (inactive) | 23.6 µM (inactive) | 68.1 µM (inactive) | 28.8 µM | 30.3 µM (inactive) | 21.2 µM (inactive) | –
CC1=NN(c2nc(N)nc(-c3ccccc3S(N)(=O)=O)n2)C(C)(C)C1 | 27.4 µM (inactive) | – | 5.64 µM (inactive) | 24.3 µM (inactive) | 18.1 µM (inactive) | – | – | 8.79 µM (inactive) | – | 16 µM (inactive) | 6.03 µM (inactive) | 22.6 µM (inactive) | 8.51 µM (inactive) | 4.44 µM (inactive) | 13.8 µM (inactive) | 2.76 µM | – | > 100 µM (inactive) | 22.4 µM (inactive)
COC(=O)N/N=C(\c1ccccc1)c1ccc(OC)cc1 | > 100 µM (inactive) | > 100 µM (inactive) | – | > 100 µM (inactive) | > 100 µM (inactive) | > 100 µM (inactive) | > 100 µM (inactive) | > 100 µM (inactive) | > 100 µM (inactive) | > 100 µM (inactive) | > 100 µM (inactive) | 59.6 µM (inactive) | > 100 µM (inactive) | – | > 100 µM (inactive) | > 100 µM | 78.7 µM (inactive) | – | > 100 µM (inactive)
C=CCOC(=O)C1=C(C)N=C2N[C@H](CCCCCCCCC)C[C@@H]3CCC1N23 (stereo partly specified) | 19 µM (inactive) | 30.1 µM (inactive) | 34.9 µM (inactive) | 16.7 µM (inactive) | 17.7 µM (inactive) | 18.2 µM (inactive) | 19.9 µM (inactive) | 20 µM (inactive) | 19.2 µM (inactive) | 30.5 µM (inactive) | 26.4 µM (inactive) | 21.6 µM (inactive) | 20.9 µM (inactive) | 21.5 µM (inactive) | 21.9 µM (inactive) | 21.3 µM | 30.5 µM (inactive) | 19.3 µM (inactive) | –
COc1cc(COC(=O)N(C)[C@@H](Cc2ccccc2)C(=O)O)c([N+](=O)[O-])cc1OC | > 100 µM (inactive) | > 100 µM (inactive) | > 100 µM (inactive) | – | > 100 µM (inactive) | > 100 µM (inactive) | > 100 µM (inactive) | > 100 µM (inactive) | > 100 µM (inactive) | > 100 µM (inactive) | > 100 µM (inactive) | > 100 µM (inactive) | > 100 µM (inactive) | > 100 µM (inactive) | > 100 µM (inactive) | > 100 µM | > 100 µM (inactive) | > 100 µM (inactive) | –
S=C(N/N=C\C=N/NC(=S)N1CCCCC1)N1CCCCC1 | 0.435 µM (active) | 0.107 µM (active) | 0.155 µM (active) | 0.608 µM (active) | 0.37 µM (active) | 0.723 µM (active) | – | 0.525 µM (active) | 0.41 µM (active) | 0.178 µM (active) | – | 0.664 µM (active) | 0.207 µM (active) | 0.267 µM (active) | – | 0.0802 µM | 0.731 µM (active) | 3.23 µM (inactive) | 1.34 µM (inactive)
CC1=C2C(=O)c3ccccc3C(=O)[C@H]2C[C@@H](N2CCCCCC2=O)O1 | 19 µM (inactive) | 20.3 µM (inactive) | 18.8 µM (inactive) | 19.9 µM (inactive) | 16.1 µM (inactive) | 17.7 µM (inactive) | – | 18.4 µM (inactive) | 21 µM (inactive) | 21.5 µM (inactive) | 19 µM (inactive) | 16.4 µM (inactive) | 23.8 µM (inactive) | 23.4 µM (inactive) | 16.7 µM (inactive) | 20.7 µM | 23.4 µM (inactive) | 19.4 µM (inactive) | > 100 µM (inactive)
